Results taken from US11421204B2, “Method of removing pluripotent cells from culture” (REPROCELL INCORPORATED, priority 2015, dated 2022).
“Also recorded” adds a separate entry of the source.

What was measured:
[1] = test system: iPS cell (cell line 201B7); assay: Evaluation of effects of ALA and/or SFC for iPS cell without photoirradiation (cell form); assay type: cell-based, human; conditions: ALA 1000 micro-M; observed 0, 4, 24, 48 hours after addition; no PDT
From the text: As a pluripotent stem cell line, a human iPS cell line (iPSC) established at ReproCELL Inc. and subcultured 50 times was used. For on-feeder cultivation, the cell line of the pluripotent stem cell was maintained on mouse embryonic fibroblast (MEF) feeder cell (RCHEFC003, ReproCELL Inc.) processed by mitomycin C in a 60-mm polystyrene plate (dish) coated by ReproCoat (ReproCELL Inc.) with culture medium for pluripotent stem cells (Primate ES cell medium, RCHEMD001, ReproCELL Inc.) as like the conventional technique. ReproCoat was coated by using on a plate at the concentration of 0.2 micro-g/cm^2 and allowing to keep it at 4 degree-Celsius, overnight.
34 mg of ALA hydrochloride (M. W.=167.6, SBI Pharmaceuticals Co., Ltd.) was weighed, and 1000 micro-L of PBS (−) (Wako Pure Chemical Industries Ltd.) were added. Thereby, 200 mM ALA solution was prepared. The solution of the prepared ALA hydrochloride (hereinafter, it is only called as “ALA solution”) was stored on a freezer at −20 degree-C until use.

[2] = test system: iPS cell (cell line 201B7); assay: Evaluation of effects of ALA-PDT for iPS cell (cell form, ALP expression); assay type: cell-based, human; conditions: ALA 1000 micro-M and/or SFC 500 micro-M for 48 hours, blue LED 10 minutes, 24 hours afterward; Blue Alkaline Phosphatase Substrate Kit III
[3] = test system: iPS cell (cell line 201B7); assay: Comparison of effects by wavelength of photoirradiation of ALA-PDT for iPS cell; assay type: cell-based, human; conditions: ALA 100 or 1000 micro-M for 4 hours, red or blue LED 10 minutes, 24 hours afterward
Procedure: Then, the effect by the difference of the wavelength in the photoirradiation of ALA-PDT for a human iPS cell was compared.
Then, the cultured iPS cell was irradiated with red LED (wavelength of 635 nm) or blue LED (wavelength of 405 nm) for 10 minutes, and the cell form was observed 24 hours afterward.
Culture conditions were: used cell line: 201B7 and used culture-medium: Primate ES Cell Medium.

human iPS cell = assay: Comparison of effects by ALA concentration of ALA-PDT for iPS cell (CCK8); assay type: cell-based
Procedure: Then, in ALA-PDT for the human iPS cell, the effects for changing the concentration of ALA were compared.
(§1) The iPS cell performed the passage process as well as an above-mentioned process was incubated for 2 to 4 minutes by using CTK (collagenase trypsin KSR) in 37 degree-C and then separated by pipetting.

[4] = test system: normal human dermal fibroblast (HDF); assay: Comparison of effects by ALA concentration of ALA-PDT for HDF (CCK8); assay type: cell-based; conditions: ALA 0-1000 micro-M, 4 hours, red LED 10 minutes, CCK8 24 hours afterward
Procedure: Also, the commercial normal human dermal fibroblast (CA106K05a, Cell Applications Inc., HDF) was used for comparative example(s).
as §1
About a normal human dermal fibroblast (HDF), based on the equivalent conditions as above-mentioned “comparison of effects by ALA hydrochloride concentration and photoirradiation of ALA-PDT for iPS cell”, the effects of the ALA concentration and ALA-PDT were compared.

[5] = test system: neuron performed differentiation induction from the human iPS cell (ReproNeuro); assay: Evaluation of effects of ALA-PDT for neuron originated from iPS cell; assay type: cell-based; conditions: red LED 10 minutes
Procedure: Then, the effects by ALA-PDT for the neuron performed differentiation induction from the human iPS cell (neuron originated from iPS cell) were evaluated. The used neuron was ReproNeuro. […] After that, the cell form was observed. Then, the cultured neuron was irradiated with red LED (wavelength of 635 nm) for 10 minutes, and the cell form was observed after 12-hour progresses (overnight). Then, it was exchanged the culture medium, which ALA was not included, and the cell form was observed after cultivating with exchanging the culture media for seven days.

[6] = test system: hepatic cell originated from human iPS cell; assay: Evaluation of effect of ALA-PDT for hepatic cells of iPS cell origin; assay type: cell-based
Procedure: The effect by ALA-PDT was evaluated for a hepatic cell originated from human iPS cell equivalent to the above-mentioned Example 1. At this example, the culture condition was plating 500,000 cells per well in a 24-well plate, then each concentration (0, 250, 500 micro-M) of ALA hydrochloride was added to the cell on the seventh day, photoirradiation was performed for 10 minutes by red LED 24 hours afterward, then form observation was carried out on the next day and after. The irradiation power of red LED was the same as that of above-mentioned case.

RC001 (iPS cell line) = assay: ALA-PDT on iPS cell line RC001, cell survival by CCK8 (Example 2); assay type: cell-based, human; conditions: ALA hydrochloride 125-1000 micro-M, 4 or 24 hours, red LED 10 minutes, cell wraps r8-r10: SURVIVAL/PROLIFERATION SUPPRESSION
Procedure: (§2) As pluripotent stem cell lines, separately, for 201B7 cell line, which is equivalent as above-mentioned Example 1, and for RC001 and RC010 (ReproCELL Inc.), after maintaining as like above-mentioned Example 1, evaluations of the ALA effects were performed.
(§3) Then, each of them was cultivated with culture medium added ALA hydrochloride having concentration (0, 125, 250, 500, 1000 micro-M), respectively.

RC010 (iPS cell line) = assay: ALA-PDT on iPS cell line RC010, cell survival by CCK8 (Example 2); assay type: cell-based, human; conditions: ALA hydrochloride 125-1000 micro-M, 4 or 24 hours, red LED 10 minutes, cell wraps r11-r13: SURVIVAL/PROLIFERATION SUPPRESSION
Procedure: as §2, §3

[7] = test system: 201B7 cell line (iPS cell); assay: ALA-PDT on iPS cell line 201B7, cell survival by CCK8 (Example 2); conditions: for rate of cell survival as compared with the control: 201B7
[8] = 250 micro-M ALA hydrochloride for 24 hours, red LED 10 minutes

Molecule: NCC(=O)CCC(=O)O [ALA, delta-aminolevulinic acid]
- influence on the iPS cell (cell form, undifferentiated form) without photoirradiation [1]: influence on the iPS cell was not observed
- undifferentiated state by expression of ALP after ALA-PDT [2]: ALP became negative; also recorded: an undifferentiated iPS cell was no longer observed
- expression of ALP (undifferentiated state) after ALA-PDT, red vs blue LED [3]: it became impossible to maintain the undifferentiated state
- cell death of the iPS cell by ALA-PDT (human iPS cell; ALA concentration greater than or equal to 250 micro-M, 4 hours after addition red LED 10 minutes, CCK8 24 hours afterward): ≥ 60%
- cell death of iPS cell by ALA-PDT (human iPS cell; ALA concentration greater than or equal to about 100 micro-M, other experiment (not shown)): ≥ 10%
- induction of cell death of HDF by ALA-PDT (CCK8) [4]: induction of the cell death by ALA-PDT was not observed
- survival of neuron after ALA-PDT ([5]; ALA 250, 500 micro-M for 4 hours, cultivation continued for seven days): continued surviving without extinction and recovered as like the condition before ALA addition
- cell adhesion and neural spine seven days after ALA-PDT ([5]; seven days after adding 250 micro-M, 500 micro-M ALA): cell adhesion could be confirmed, and the neural spine was elongating in all of them
- form observation of hepatic cells 24 hours after LED irradiation [6, 8]: the cell with clear cobblestone morphology and nucleus remained
- form observation of hepatic cells 48 hours after LED irradiation [6, 8]: the cell with cobblestone morphology and nucleus continued surviving
- protection of hepatic cells from ALA-PDT ([6]; 250 micro-M ALA, preliminary experiment): it was protected
- survival of hepatic cells after ALA-PDT ([6]; ALA hydrochloride 250 and 500 micro-M, red LED 10 minutes, 24 and 60 hours after irradiation): survived under the various conditions of ALA-PDT were present
- state of survived hepatic cells, 250 micro-M versus 500 micro-M (visual inspection) ([6]; ALA hydrochloride 250 vs 500 micro-M, red LED 10 minutes): the state of the survived cells under the condition of 250 micro-M were better than that of 500 micro-M
- EFFECT BY ALA (RC001 (iPS cell line)): Survival and proliferation for each cell line were suppressed
- EFFECT BY ALA (RC010 (iPS cell line)): Survival and proliferation for each cell line were suppressed
- rate of cell survival as compared with the control ([7]; 250 micro-M ALA, after-addition time 4 hours, red LED 10 minutes, CCK8): 65%
- rate of cell survival as compared with the control ([7]; after-addition time 24 hours, red LED 10 minutes, CCK8): 7%
- EFFECT BY ALA ([7]; cell line 201B7, ALA hydrochloride 125-1000 micro-M, 4 or 24 hours, red LED 10 minutes, CCK8, cell wraps r5-r7: SURVIVAL/PROLIFERATION SUPPRESSION): Survival and proliferation for each cell line were suppressed
- rate of cell survival with after-addition time longer than 24 hours, compared with 24 hours ([7]; preliminary experiment): there is no change the rate of cell survival

Molecule: sodium ferrous citrate [SFC]
- undifferentiated state by expression of ALP after ALA-PDT [2]: maintaining the undifferentiated-like state
